± gives the expanded uncertainty stated by the source.
Assay: xn = mol fraction of the nth substance listed
Conditions: Liquid, Vibrating tube method

CCC(C)Cl (configuration not stated) [2-chlorobutane] + CCCCCCC
mass density [kg/m3]
Conditions | 313.15 K | 323.15 K
100 kPa, x2 = 0.0524 | – | 825.09 ± 0.24
100 kPa, x2 = 0.1018 | – | 813.02 ± 0.24
100 kPa, x2 = 0.1968 | – | 791.28 ± 0.24
100 kPa, x2 = 0.3006 | – | 769.26 ± 0.24
100 kPa, x2 = 0.4029 | – | 749.24 ± 0.24
100 kPa, x2 = 0.5017 | – | 731.3 ± 0.25
100 kPa, x2 = 0.6008 | – | 714.64 ± 0.25
100 kPa, x2 = 0.7023 | – | 698.73 ± 0.25
100 kPa, x2 = 0.7977 | – | 684.8 ± 0.25
100 kPa, x2 = 0.8986 | – | 671.19 ± 0.25
100 kPa, x2 = 0.952 | – | 664.27 ± 0.25
2000 kPa, x2 = 0.0524 | – | 827.83 ± 0.25
2000 kPa, x2 = 0.1018 | – | 815.67 ± 0.25
2000 kPa, x2 = 0.1968 | – | 793.94 ± 0.26
2000 kPa, x2 = 0.3006 | – | 771.89 ± 0.26
2000 kPa, x2 = 0.4029 | – | 751.76 ± 0.26
2000 kPa, x2 = 0.5017 | – | 733.83 ± 0.26
2000 kPa, x2 = 0.6008 | – | 717.08 ± 0.27
2000 kPa, x2 = 0.7023 | – | 701.07 ± 0.27
2000 kPa, x2 = 0.7977 | – | 687.1 ± 0.27
2000 kPa, x2 = 0.8986 | – | 673.45 ± 0.27
2000 kPa, x2 = 0.952 | – | 666.5 ± 0.28
5000 kPa, x2 = 0.0524 | – | 831.91 ± 0.27
5000 kPa, x2 = 0.1018 | – | 819.82 ± 0.27
5000 kPa, x2 = 0.1968 | – | 797.9 ± 0.28
5000 kPa, x2 = 0.3006 | – | 775.73 ± 0.28
5000 kPa, x2 = 0.4029 | – | 755.62 ± 0.29
5000 kPa, x2 = 0.5017 | – | 737.6 ± 0.29
5000 kPa, x2 = 0.6008 | – | 720.78 ± 0.3
5000 kPa, x2 = 0.7023 | – | 704.73 ± 0.3
5000 kPa, x2 = 0.7977 | – | 690.71 ± 0.31
5000 kPa, x2 = 0.8986 | – | 677.02 ± 0.31
5000 kPa, x2 = 0.952 | – | 670.04 ± 0.31
7000 kPa, x2 = 0.0524 | – | 834.54 ± 0.28
7000 kPa, x2 = 0.1018 | – | 822.46 ± 0.29
7000 kPa, x2 = 0.1968 | – | 800.49 ± 0.29
7000 kPa, x2 = 0.3006 | – | 778.37 ± 0.3
7000 kPa, x2 = 0.4029 | – | 758.11 ± 0.31
7000 kPa, x2 = 0.5017 | – | 740.05 ± 0.31
7000 kPa, x2 = 0.6008 | – | 723.19 ± 0.32
7000 kPa, x2 = 0.7023 | – | 707.1 ± 0.32
7000 kPa, x2 = 0.7977 | – | 693.06 ± 0.33
7000 kPa, x2 = 0.8986 | – | 679.34 ± 0.34
7000 kPa, x2 = 0.952 | – | 672.34 ± 0.34
10000 kPa, x2 = 0.0524 | – | 838.27 ± 0.3
10000 kPa, x2 = 0.1018 | – | 826.08 ± 0.31
10000 kPa, x2 = 0.1968 | – | 804.11 ± 0.31
10000 kPa, x2 = 0.3006 | – | 781.87 ± 0.32
10000 kPa, x2 = 0.4029 | – | 761.62 ± 0.33
10000 kPa, x2 = 0.5017 | – | 743.56 ± 0.34
10000 kPa, x2 = 0.6008 | – | 726.61 ± 0.35
10000 kPa, x2 = 0.7023 | – | 710.43 ± 0.36
10000 kPa, x2 = 0.7977 | – | 696.28 ± 0.36
10000 kPa, x2 = 0.8986 | – | 682.48 ± 0.37
10000 kPa, x2 = 0.952 | – | 675.45 ± 0.37
20000 kPa, x2 = 0.0524 | – | 849.8 ± 0.35
20000 kPa, x2 = 0.1018 | – | 837.53 ± 0.36
20000 kPa, x2 = 0.1968 | – | 815.4 ± 0.38
20000 kPa, x2 = 0.3006 | – | 792.88 ± 0.4
20000 kPa, x2 = 0.4029 | – | 772.5 ± 0.42
20000 kPa, x2 = 0.5017 | 762.72 ± 0.42 | 754.11 ± 0.43
20000 kPa, x2 = 0.6008 | 745.36 ± 0.44 | 737 ± 0.45
20000 kPa, x2 = 0.7023 | 728.79 ± 0.45 | 720.73 ± 0.46
20000 kPa, x2 = 0.7977 | 714.29 ± 0.47 | 706.35 ± 0.47
20000 kPa, x2 = 0.8986 | 699.96 ± 0.48 | 692.38 ± 0.48
20000 kPa, x2 = 0.952 | 692.74 ± 0.48 | 685.27 ± 0.49
30000 kPa, x2 = 0.0524 | 869.48 ± 0.39 | 860.04 ± 0.4
30000 kPa, x2 = 0.1018 | 856.99 ± 0.4 | 847.72 ± 0.41
30000 kPa, x2 = 0.1968 | 834.35 ± 0.43 | 825.47 ± 0.44
30000 kPa, x2 = 0.3006 | 811.43 ± 0.46 | 802.73 ± 0.47
30000 kPa, x2 = 0.4029 | 790.51 ± 0.48 | 782.02 ± 0.49
30000 kPa, x2 = 0.5017 | 771.71 ± 0.5 | 763.53 ± 0.51
30000 kPa, x2 = 0.6008 | 754.16 ± 0.53 | 746.23 ± 0.54
30000 kPa, x2 = 0.7023 | 737.41 ± 0.55 | 729.67 ± 0.56
30000 kPa, x2 = 0.7977 | 722.74 ± 0.56 | 715.26 ± 0.57
30000 kPa, x2 = 0.8986 | 708.23 ± 0.58 | 700.97 ± 0.59
30000 kPa, x2 = 0.952 | 700.93 ± 0.59 | 693.82 ± 0.6
40000 kPa, x2 = 0.0524 | 878.27 ± 0.42 | 869.34 ± 0.44
40000 kPa, x2 = 0.1018 | 865.7 ± 0.44 | 856.96 ± 0.46
40000 kPa, x2 = 0.1968 | 842.91 ± 0.48 | 834.4 ± 0.49
40000 kPa, x2 = 0.3006 | 819.81 ± 0.51 | 811.6 ± 0.53
40000 kPa, x2 = 0.4029 | 798.72 ± 0.55 | 790.72 ± 0.56
40000 kPa, x2 = 0.5017 | 779.77 ± 0.58 | 772.1 ± 0.59
40000 kPa, x2 = 0.6008 | 762.09 ± 0.61 | 754.63 ± 0.62
40000 kPa, x2 = 0.7023 | 745.16 ± 0.64 | 737.89 ± 0.65
40000 kPa, x2 = 0.7977 | 730.38 ± 0.66 | 723.24 ± 0.67
40000 kPa, x2 = 0.8986 | 715.74 ± 0.68 | 708.82 ± 0.69
40000 kPa, x2 = 0.952 | 708.38 ± 0.7 | 701.63 ± 0.71
50000 kPa, x2 = 0.0524 | 886.46 ± 0.45 | 877.82 ± 0.47
50000 kPa, x2 = 0.1018 | 873.81 ± 0.48 | 865.47 ± 0.49
50000 kPa, x2 = 0.1968 | 850.85 ± 0.52 | 842.71 ± 0.54
50000 kPa, x2 = 0.3006 | 827.58 ± 0.57 | 819.72 ± 0.58
50000 kPa, x2 = 0.4029 | 806.37 ± 0.61 | 798.76 ± 0.63
50000 kPa, x2 = 0.5017 | 787.33 ± 0.65 | 779.9 ± 0.66
50000 kPa, x2 = 0.6008 | 769.48 ± 0.68 | 762.28 ± 0.7
50000 kPa, x2 = 0.7023 | 752.43 ± 0.72 | 745.43 ± 0.73
50000 kPa, x2 = 0.7977 | 737.47 ± 0.75 | 730.63 ± 0.76
50000 kPa, x2 = 0.8986 | 722.77 ± 0.78 | 716.08 ± 0.79
50000 kPa, x2 = 0.952 | 715.34 ± 0.79 | 708.79 ± 0.81
60000 kPa, x2 = 0.0524 | 894.03 ± 0.48 | 885.83 ± 0.5
60000 kPa, x2 = 0.1018 | 881.29 ± 0.51 | 873.29 ± 0.53
60000 kPa, x2 = 0.1968 | 858.17 ± 0.56 | 850.37 ± 0.58
60000 kPa, x2 = 0.3006 | 834.83 ± 0.62 | 827.3 ± 0.64
60000 kPa, x2 = 0.4029 | 813.47 ± 0.67 | 806.2 ± 0.69
60000 kPa, x2 = 0.5017 | 794.34 ± 0.71 | 787.21 ± 0.73
60000 kPa, x2 = 0.6008 | 776.43 ± 0.76 | 769.46 ± 0.77
60000 kPa, x2 = 0.7023 | 759.35 ± 0.8 | 752.51 ± 0.81
60000 kPa, x2 = 0.7977 | 744.21 ± 0.83 | 737.59 ± 0.85
60000 kPa, x2 = 0.8986 | 729.29 ± 0.87 | 722.89 ± 0.89
60000 kPa, x2 = 0.952 | 721.82 ± 0.89 | 715.52 ± 0.9
65000 kPa, x2 = 0.0524 | 897.67 ± 0.49 | 889.59 ± 0.51
65000 kPa, x2 = 0.1018 | 884.92 ± 0.52 | 877.02 ± 0.54
65000 kPa, x2 = 0.1968 | 861.74 ± 0.58 | 854.06 ± 0.6
65000 kPa, x2 = 0.3006 | 838.38 ± 0.64 | 830.95 ± 0.66
65000 kPa, x2 = 0.4029 | 816.9 ± 0.7 | 809.85 ± 0.71
65000 kPa, x2 = 0.5017 | 797.7 ± 0.75 | 790.81 ± 0.76
65000 kPa, x2 = 0.6008 | 779.7 ± 0.79 | 772.98 ± 0.81
65000 kPa, x2 = 0.7023 | 762.47 ± 0.84 | 755.89 ± 0.85
65000 kPa, x2 = 0.7977 | 747.31 ± 0.88 | 740.95 ± 0.89
65000 kPa, x2 = 0.8986 | 732.32 ± 0.92 | 726.04 ± 0.93
65000 kPa, x2 = 0.952 | 724.77 ± 0.93 | 718.69 ± 0.95

Reference: the NIST ThermoML archive (doi:10.1016/j.tca.2015.06.017)
